Results on 90 compounds are retold here after a melting point compilation (Tetko et al.; mined from patent text by program, amines drawn as free bases though some values may be those of a salt).

Usually melting point stands for the temperature of the solid-liquid transition.

On to `CCN(CC)C1=NS(=O)(=O)c2cccc(OC(F)F)c21`, for which the melting point lay within 93 to 94 °C.
The value for `CC(=O)c1ccccc1CC1CNC(=O)O1` (stereo not given) was 85 to 86 °C; that for `CC(C)C[C@H]1CNC[C@H]1C(=O)O` (relative stereo) was 260 to 262 °C; that for `CC1CC1C(=O)Nc1ccc(-n2nc(C(F)(F)F)cc2C(F)(F)F)cc1` (stereo not given) was 172 to 173 °C.
For `O=C1Nc2ccccc2C12COc1ccc(F)cc12` (stereo not given), the melting point is 224 to 226 °C.
Turning to `COc1cccc(Nc2nc(-n3nc(C)cc3C)nc3ccccc23)c1`, the melting point fell in the range of 193 to 195 °C.
The compound `CNC(=O)CC1CN=C(c2cc3cc(Oc4ccc(S(C)(=O)=O)nc4)cc(OC4CCOCC4)c3[nH]2)S1` (stereo not given) showed a melting point of 143 to 144 °C.
For `c1cc(OCC2CO2)c2cnsc2c1` (stereo not given) the value was 90 to 91 °C; for `Nc1nc2ccccc2c2c1ncn2CCCCNC(=O)c1cccc(C(=O)c2ccccc2)c1`, 103 to 105 °C; for `N#Cc1cscc1Nc1ccc(Cl)cc1[N+](=O)[O-]`, 214 °C.
In the case of `Nc1nc2ccccc2c2c1ncn2CC1CCCCO1` (stereo not given), the melting point was in the range of 206 to 210 °C.
`COc1ccc(-c2ccc3ccc(OC)cc3c2)cc1` showed a melting point of 154 °C.
The value for `O=C(C(Cl)=CO)c1ccc(Cl)cc1Cl` was 162 °C; that for `CCCCOC(=O)c1ccc2c(c1)C(=O)NC(C(Cl)(Cl)Cl)O2` (stereo not given) was 134 to 136 °C; that for `Cn1cc(-c2ccc3nnc(C(F)(F)c4ccc5ncccc5c4)n3n2)cn1` was 200 °C.
Consider `COc1ncccc1-c1ccc(OC2SCC(OC(C)=O)C(OC(C)=O)C2OC(C)=O)c(Cl)n1` (stereo not given), for which the melting point was 221 °C.
For `OCC(O)COCc1nnc2n1-c1ccc(Cl)cc1C(c1ccccc1)=NC2` (stereo not given) the value was 130 to 134 °C.
Compound `COc1ccc(Cn2cnc3c(-c4ccco4)nc(SC)nc32)cc1` returned a melting point of 147 to 148 °C.
`CCc1noc(-c2cn(-c3nccs3)cn2)n1`: the melting point is 147 to 148 °C.
With `CNC(=O)N(C)c1ccc(Cl)c(COc2cccn3c(Br)c(C)nc23)c1Cl`, the melting point was in the range of 192 to 193 °C.
In turn, `Clc1ccc2c(c1)C(=C1CCN(CC3CCC3)CC1)c1ccccc1S2` displayed a melting point of 180 to 182 °C.
As to `CCCCCCCCCCc1c(C)c(C)c(-c2n[nH]c3cc(C(C)(C)C)nn23)c(C)c1C`, the melting point fell in the range of 194 to 195 °C.
The compound `Cc1c(N2CCC(O)CC2)c(F)cc2c(=O)c(C(=O)O)cn(C3CC3)c12` showed a melting point of 234 to 236 °C.
The value for `CCOC(=O)Nc1ccc(OCCCCl)cc1` was 91 to 93 °C.
In turn, `CCCCCCCCCCCCCCCC(=O)SC1CCN(C(C(=O)OC)c2ccccc2F)CC1` (stereo not given) came in with a melting point of 44 to 47 °C.
`CCOC(=O)CCCc1oc(-n2ccnc2C)nc1-c1ccc(Cl)cc1` came in with a melting point of 72 to 73 °C.
`O=C(CC(c1ccccc1)c1ccccc1)NCO` came in with a melting point of 149 to 151 °C.
`Cc1cc(-c2cc(C(F)(F)F)n3nc(CC#N)c(C#N)c3n2)ccc1Cl` gave a melting point of 238 °C.
For `Cc1nc(NCC(C)C)sc1C(=O)c1ccc(Cl)c([N+](=O)[O-])c1` the value was 138 to 142 °C; for `COC(=S)C1CCn2c(C(=O)c3ccccc3)ccc21` (stereo not given), 69 °C; for `CCOC(=O)c1ccc(N=C(Nc2ccc(C(=O)OCC)cc2)c2ccccc2)cc1`, 170 to 172 °C.
Take `CCN(CC)Cc1nc2cc(OC)c(OC)cc2c(-c2ccc(OC)c(OC)c2)c1C(=O)CC(C)C`: the melting point is 153 to 154 °C.
`CC1(C)SC2C(N3C(=O)c4ccccc4C3=O)C(=O)N2C1C(=O)OCc1ccc([N+](=O)[O-])cc1` (stereo not given) came in with a melting point of 233 to 234 °C.
The compound `COc1ccc(NC(=O)c2ccc(-c3ccc(-c4noc(C)n4)cc3C)cc2)cc1OCCN` had a melting point of 150 to 153 °C.
The value for `O=C(O)c1ccc(-n2nc(-c3ccccc3O)nc2-c2ccccc2O)cc1` was 255 to 262 °C; that for `S=c1[nH]c2c(n1-c1ccccn1)CCCC2` was 203 to 204 °C.
As for `CC(C)(Nc1ccccc1[N+](=O)[O-])C(=O)O`, the melting point is 132 to 133 °C.
On to `N#Cc1ccc(N2CCN(Cc3cnc4c(c3)NC(=O)[C@@H]3CCCN43)CC2)c(F)c1`, for which the melting point worked out at 226 °C.
`N#Cc1cc(F)c(-n2nc(C(F)(F)F)n(C(F)F)c2=O)cc1F`: the melting point stood at 68 °C.
Compound `COc1ccc2[nH]c3c(c2c1)C1C(=O)OC(=O)C1C(c1ccccc1Cl)C3` (stereo not given) yielded a melting point of 189 to 191 °C.
Regarding `CCOC(=O)CCc1ccc(OCCOC)cc1OCc1ccccc1`, the melting point was 38 to 39 °C.
The compound `O=C(c1ccccc1OCCCCl)c1cccc2[nH]ccc12` returned a melting point of 94 °C.
For `CCOC(=O)c1cccc2nc(S)n(Cc3ccc(-c4ccccc4C#N)cc3)c12`, the melting point lay within 225 to 227 °C.
For `O=[N+]([O-])c1ccc(OCCCCl)cc1` the value was 37 to 39 °C; for `CCN(CC)c1ccncc1NC(=S)NC1CCCCC1`, 119 to 121 °C.
Compound `CN1CCC(N(C)c2n[nH]c(-c3ccc(Cl)cc3)c2-c2ccncc2)CC1` registered a melting point of 260 to 261 °C.
In turn, `CCCc1ccc(-c2ncccc2S(=O)(=O)Nc2ncc(C)nc2OC)cc1` displayed a melting point of 70 to 72 °C.
`CCOC(=O)COc1cccc(Cl)c1` came in with a melting point of 39 to 40 °C.
Compound `CCOC(=O)N1CCn2c(nc(-c3ccncn3)cc2=O)C(NC(=O)c2ccccn2)C1` (racemic) showed a melting point of 250 to 252 °C.
On to `Oc1c2c(nn1-c1ncccc1C(F)(F)F)CCc1ccccc1-2`, for which the melting point was in the range of 174 to 175 °C.
For the compound `CCCCCCCCOc1ccc(-c2ccc(NC(=O)N(O)C(CC)CC)cc2)cc1`, the melting point was in the range of 151 to 152 °C.
`CCCCCCn1c2ccc(C)cc2c(=O)c2c1cnn2C` came in with a melting point of 80 to 82 °C.
In turn, `Nc1nc(NC2CC2)c2ncn([C@@H]3C[C@H](CO)[C@@H](O)C3)c2n1` yielded a melting point of 174 to 176 °C.
Consider `CCNC(=O)[C@@H]1C[C@H](SCc2ccc(OC)cc2)CN1CC`, for which the melting point was 60 to 61 °C.
For `CC(C)N(C(=O)n1oc(=O)[nH]c1=O)c1ccccc1` the value was 116 to 117 °C.
The compound `O=c1ccn(-c2cccc(Cl)c2)nc1-c1ccnn1-c1ccccc1` returned a melting point of 146 to 147 °C.
As to `OCCC[C@H]1OC[C@H](c2ccc(Cl)c3ccccc32)CO1`, the melting point lay within 127 to 129 °C.
For `Cc1sccc1C1(c2cccc(-c3cncnc3)c2)N=C(N)N(C)C1=O` (stereo not given) the value was 154 to 159 °C; for `CN(C)CC(O)COc1ccc2c(c1)OC(C)(C)CC2c1cccc2ccccc12` (stereo not given), 123 to 125 °C.
In turn, `Nc1nc(N)c2c(n1)CCC(Cc1cc(Cl)cc(Cl)c1)C2` (stereo not given) had a melting point of more than 200 °C.
The compound `Nc1nc(Cl)cc(Oc2ccc3c(c2)OCCN3C(=O)OCc2ccccc2)n1` displayed a melting point of 161 to 163 °C.
Compound `CS(=O)(=O)N1CCN([C@@H](CNC(=O)c2ccc(OCc3ccc(C(F)(F)F)cc3)cc2)C(=O)NO)CC1` came in with a melting point of 192 °C.
The value for `COC(=O)c1cc(C(=O)O)nn1C` was 175 °C.
For `O=C(O)C(Cc1nnn[nH]1)NC(=O)C(CS)C(F)(F)F` (stereo not given) the value was 158 to 161 °C; for `Cc1c(SCCCl)ccnc1CSc1nc2ccccc2[nH]1`, 178 to 180 °C; for `CCCCc1nc2c(N)nc3ccc(OCCC4CCN(C(=O)C5CCCC5)CC4)cc3c2n1C`, 147 to 150 °C.
In turn, `COC(=O)c1ccc(C(=O)NC(C(=O)N2CCCC2C(=O)NC(C(C)C)C(O)C(F)(F)F)C(C)C)cc1` (mixture of isomers) had a melting point of 64 to 67 °C.
For `Cc1ncc(C(O)=S)cc1OC1CCCC1` the value was 177 to 178 °C; for `CC12CCC(=O)C=C1CCC1C3CC(OCCO)C(O)(C(=O)CO)C3(C)CC(O)C12F` (stereo not given), 162 to 165 °C.
As to `OC(CNC1CC1)COc1ccc(-c2nc(C(F)(F)F)c[nH]2)cc1` (stereo not given), the melting point is 169 to 171 °C.
For `COc1c(Cl)ccc2c1C(O)(c1ccccc1Cl)C(=O)N2` (stereo not given), the melting point lay within 228 to 229 °C.
As for `CC1Cc2c(c(S(N)(=O)=O)nn2C)C(=O)O1` (stereo not given), the melting point fell in the range of 142 to 144 °C.
Compound `Cc1cc(-c2ccccc2)c2c(n1)C(C(N)=S)CCC2` (stereo not given) registered a melting point of 174 to 175 °C.
The value for `Cc1cc(NC(=O)CC#N)nc(C)n1` was 178 °C; that for `N#CCC1CC(=O)N(c2ccc(F)cc2)C1=O` (stereo not given) was 97 °C.
The value for `CCOC(=O)c1ccccc1-c1cc(-c2cccc(C(F)(F)F)c2)no1` was 28 to 30 °C.
The compound `O=C(O)C(c1ccccc1)n1c(=O)c(=O)[nH]c2ccccc21` (stereo not given) registered a melting point of 242 to 244 °C.
The compound `CCCCCCc1c(C(F)(F)F)noc1NS(=O)(=O)c1ccccc1` gave a melting point of 128 to 129 °C.
`CCC(=O)c1cc2c(s1)CCC1CC(=O)N(c3ccc(Cl)cc3)N=C21` (stereo not given) yielded a melting point of 135 to 138 °C.
The compound `COC(=O)c1cc(OCCCN2CCN(c3cccc4sccc34)CC2)n(C)n1` yielded a melting point of 109 to 110 °C.
`CN1C(=O)C(c2cccc(OCc3ccccc3)c2)(c2cnn(CC(F)(F)F)c2)N=C1N` (stereo not given) yielded a melting point of 85 to 87 °C.
`COc1nc(C)cnc1NS(=O)(=O)c1cccnc1-c1ccc(I)cc1` yielded a melting point of 180 to 183 °C.
Compound `CC1OC(Cn2cncn2)(c2ccc(Cl)cc2Cl)C1(C)C` (stereo not given) gave a melting point of 118 to 125 °C.
The value for `Nc1cc(-c2ccco2)ccc1Nc1cccc(-n2cccc2)c1` was 163 to 164 °C; that for `Cc1ccc2cccc(OCc3c(Cl)ccc(S(=O)(=O)N(C)CCCCCC(=O)O)c3Cl)c2n1` was 98 to 102 °C; that for `CCNS(=O)(=O)c1nc2cc(C(=O)c3ccccc3)ccc2[nH]1` was 250 to 253 °C.
`COC(=O)c1ccc(N)cc1S(=O)(=O)NC(C)(C)C` had a melting point of 198 to 199 °C.
In the case of `COCCNC(=O)c1cc(-c2cccc3cc(Cc4cccc(C(F)(F)F)c4)sc23)ccc1F`, the melting point fell in the range of 94 to 95 °C.
Compound `COC(=O)CCCCC(C)C1CCC2C3CCC4CC(OC=O)CCC4(C)C3CC(OC=O)C12C` (stereo not given) returned a melting point of 67 to 72 °C.
Consider `CC(=O)C(C(=O)c1ccccc1)=C1CCCN1`, for which the melting point is 106 to 108 °C.
